Results reported in publication PMC8921975 (Journal of the American Chemical Society, 2020).
“Also recorded” adds a separate entry of the source. Positions of bridges follow the written chain, without caps; N, C: chain ends. Non-standard residues stand in square brackets, D forms with d. No end group written: not given here. pGlu = O=C1CC[C@@H](C(=O)O)N1

What was measured:
TDP1 = TDP1 inhibitory activity of Axinella-derived peptides; type: biochemical; conditions: Figure S2
[1] = test system: N-terminal truncated form of TDP1 (Δ147TDP1); type: biochemical, human; conditions: N-terminally truncated TDP1 lacking regulatory domain (Δ1–147); FRET assay, PBS pH 7.4, 80 mM KCl, 1 mM TCEP
full-length TDP1 = full-length TDP1 (Homo sapiens, UniProt Q9NUW8); test: Steady-state; type: biochemical
[2] = full-length TDP1 0.5 nM, 0.01–3 μM FRET substrate, recifin A 0, 0.2, 0.5, 1, 2 μM, PBS pH 7.4, 80 mM KCl, 1 mM TCEP, quadruplicate, 1 h
[3] = full-length TDP1, Figure S10 (Km and Vmax ratios)

full-length TDP1, sequence (Q9NUW8 whole entry): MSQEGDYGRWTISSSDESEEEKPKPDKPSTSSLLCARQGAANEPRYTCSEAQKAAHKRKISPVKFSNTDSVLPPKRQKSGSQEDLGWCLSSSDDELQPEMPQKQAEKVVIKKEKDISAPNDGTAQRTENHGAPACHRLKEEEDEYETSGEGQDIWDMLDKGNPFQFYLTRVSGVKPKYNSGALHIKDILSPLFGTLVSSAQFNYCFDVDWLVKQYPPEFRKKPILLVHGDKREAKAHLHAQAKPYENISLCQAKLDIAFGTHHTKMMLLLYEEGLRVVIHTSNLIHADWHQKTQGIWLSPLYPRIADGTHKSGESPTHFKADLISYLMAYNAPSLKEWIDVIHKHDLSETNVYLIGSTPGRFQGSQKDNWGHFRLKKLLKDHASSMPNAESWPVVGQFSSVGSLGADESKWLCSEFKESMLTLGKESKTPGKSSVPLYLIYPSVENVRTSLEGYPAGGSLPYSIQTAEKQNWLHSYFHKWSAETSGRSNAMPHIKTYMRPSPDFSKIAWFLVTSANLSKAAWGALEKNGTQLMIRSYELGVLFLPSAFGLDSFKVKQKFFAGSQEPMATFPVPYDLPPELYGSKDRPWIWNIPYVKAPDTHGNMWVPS

[pGlu]EAFCYSDRFCQNYIGSIPDCCFGRGSYSFELQPPPWECYQC (disulfide 5-21, 11-39, 22-42) [recifin A]
TDP1 inhibitory activity relative to the other Axinella peptides (TDP1): most active peptide
inhibition of Δ147TDP1 enzymatic activity (in words) [1]: not affecting the activity of a truncated catalytic domain of TDP1; also recorded: only a minimal effect; also recorded: inhibited full-length TDP1 but not N-terminally truncated TDP1 (Δ147TDP1); also recorded: does not affect the enzymatic activity of truncated TDP1; also recorded: unaffected by recifin A
Km for the substrate, effect of recifin A (in words) (full-length TDP1; [2]): increased the Km for the substrate
Vmax, effect of recifin A (in words) (full-length TDP1; [2]): modest increase of the observed Vmax value; also recorded: increased the Vmax of the enzyme
recifin A-dependent increase in the Km for the substrate (full-length TDP1; [3]): approximately 6 fold
recifin A-dependent increase of observed Vmax (full-length TDP1; [3]): approximately 1.6 fold
